pIC50: −log10 of the molar value. “Also recorded” adds a separate entry of the source. Ends that are not written are not given here.
Tests used:
primary rat astrocytes = assay: Astrocyte toxicity model; type: cell-based; details: 2.5 to 10 μM, 24 hour exposure (FIG. 43)
Description: A brain endothelial cell line (bEND3) and a neuroblastoma cell line (SH-SY5Y) were also used for some experiments. bEND3 and SH-SY5Y cells were cultured using standard techniques in DMEM plus 5 or 15% foetal calf serum. Rat primary astrocytes were obtained and cultured as described for cortical neurons except DMEM plus 10% foetal calf serum was used instead of Neurobasal/2% B27, and the mitotic inhibitor, cytosine arabinofuraNOside was not used.
For neuronal cultures peptides were added to culture wells (96-well plate format) by removing media and adding 100 μl of 50% Neurobasal/2% N2 supplement and 50% BSS containing CPPs, JNKI-1 D-TAT or TAT-NR2B9c. Control cultures received of 50% Neurobasal/2% N2 supplement and 50% BSS media only. Cultures were incubation at 37° C. in the CO2 incubator for 20 hours, after which time cell viability was assessed using the MTS assay. For bEND3 cultures, peptides were added to culture wells (96-well plate format) by removing media and adding 100 μl of DMEM/2% FCS containing peptide. Control cultures received 100 μl of DMEM/2% FCS only, Cultures were incubation at 37° C. in the CO2 incubator for 0.5, 1 or 2 hours, after which time cell viability was assessed using the MTS assay. […] Cultures were incubation at 37° C. in the CO2 incubator for 24 hours, after which time cell viability was assessed using the MTS assay.
Twenty-four hours after insult, neuronal cultures were examined by light microscopy for qualitative assessment of neuronal cell viability. Neuronal viability was quantitatively measured by 3-(4,5,dimethyliazol-2-yl)-5-(3-carboxymethoxy-phenyl)-2-(4-sulfophenyl)-2H-tetrazolium salt (MTS) assay (Promega, Australia). The MTS assay measures the cellular conversion of the tetrazolium salt to a water-soluble brown formazan salt, which is detected spectrophotometrically at 490 nm. MTS absorbance data were converted to reflect proportional cell viability relative to both the untreated and treated controls, with the untreated control taken as 100% viability, and presented as mean±SEM. […]

[1] = tested on: permanent middle cerebral artery occlusion (MCAO) stroke model; assay: Rat permanent middle cerebral artery occlusion (MCAO) stroke model; type: in vivo
Description: Administration of peptide (DR9: rrrrrrrrr-NH2; R12, R15, R18, protamine sulphate; protamine) or vehicle (saline: 0.9% NaCl) treatment solution was performed at 30 min post-MCAO. The peptide treatment comprised DR9 in saline (600 μl) to provide an intravenous loading dose of 1 μmol/kg or 1000 nmol/kg given over 5-6 min via the right jugular vein.
This study was approved by the Animal Ethics Committee of the University of Western Australia. Male Sprague Dawley rats weighing 270 g to 350 g were kept under controlled housing conditions with 12 hour light-dark cycle with free access to food and water. Experimental animals were fasted overnight and subjected to permanent middle cerebral artery occlusion (MCAO) as follows.
Anaesthesia was induced with 4% isoflurane and a 2:1 mix of N2O and O2 via mask. Anaesthesia was maintained at 1.7-2% isoflurane. Cerebral blood flow (CBF) was monitored continuously using laser Doppler flowmetry (Blood FlowMeter, AD Instruments, Sydney, Australia). The probe was located 1 mm caudal and 4 mm lateral (right) to the bregma. A cannula was inserted in the right femoral artery to continuously monitor blood pressure and to provide samples for blood glucose and blood gas readings. Blood glucose was measured using a glucometer (MediSense Products, Abbott Laboratories, Bedford, Mass., USA) and blood gases were measured using a blood gas analyser (ABL5, Radiometer, Copenhagen, Denmark). Blood pressure was maintained at 80-100 mmHg. During surgery, rectal temperature was maintained at 37±0.5° C. and warming applied with a fan heater when necessary. For intravenous infusions, a length of PVC line primed with heparinised saline was tied in place in the right jugular vein, then externalised through a dorsal mid-scapular incision to a tether/swivel system (Instech Laboratories, Philadelphia, USA) designed to permit free movement.
The right common carotid artery (CCA) was exposed via a ventral neck incision. […] The isolated section of the ECA was ligated and cauterised to create a stump. The carotid body was removed and the pterygopalatine artery was ligated. A 4-0 nylon monofilament with a 0.39 mm diameter silicone tip (Doccol, Redlands, Calif., USA) was inserted through the ECA stump into the CCA and advanced rostrally into the internal carotid artery (ICA) until the laser Doppler flowmetry recorded a >30% decrease from baseline of cerebral blood flow. The monofilament was secured in two places (at the base of the ECA stump and on the ICA) for the remainder of the experiment. Animals were given post-operative analgesia consisting of pethidine (3 mg/kg intramuscular) and bupivacaine (1.5 mg/kg subcutaneously) at head and leg incision sites.
Post-surgery animals were allowed to recover in a climate-controlled chamber and their core body temperature monitored and maintained at 37±0.5° C. by a cooling/heating fan when required for 3-4 hours.
Animals were sacrificed 24 hours post-MCAO with intra-peritoneal injections of sodium pentobarbitone (900 mg/kg). […] Slices were scanned and images were analysed by an operator blind to treatment status using ImageJ 3rd edition (NIH, USA). The total infarct volume was determined by adding the areas of infarcted tissue on both sides of the 2 mm sections. These measured areas were multiplied by half slice thickness (1 mm), and corrected for cerebral oedema by multiplying the ratio of affected to normal hemisphere areas. […]

[2] = tested on: primary cortical neuronal cultures; details: for effect of heparin on neuroprotective action: heparin 20 IU/ml with peptide or 40 IU/ml on cultures (FIGS. 39, 40)
Description: Briefly, cortical tissue from E18-E19 Sprague-Dawley rats was dissociated in Dulbecco's modified Eagle medium (DMEM; Invitrogen, Australia) supplemented with 1.3 mM L-cysteine, 0.9 mM NaHCOa, 10 units/ml papain (Sigma, USA) and 50 units/ml DNase (Sigma) and washed in cold DMEM/10% horse serum. Neurons were resuspended in Neurobasal (Invitrogen) containing 2% B27 supplement (B27; Invitrogen). Before seeding, 96-well sized glass wells (6 mm diameter, ProTech, Australia) or 96-well plastic plates (ProSciTech, Australia) were coated with poly-D-lysine overnight ([…]: 50 mg/mL; 70-150 K, Sigma). […] Neurons were plated to obtain ≈10,000 viable neurons for each well on day in vitro 11-12. […] On day in vitro 4 one third of the culture medium was removed and replaced with fresh Neurobasal/2% B27 containing the mitotic inhibitor, cytosine arabinofuraNOside (1 mM final concentration; Sigma). On day in vitro 8 one half of the culture medium was replaced with Neurobasal/2% B27.
To induce excitotoxicity, 50 μl of Neurobasal/2% B27 containing glutamic acid (200 μM) or kainic acid (400 μM) or NMDA (200 μM) was added to the culture wells (100 μM glutamic acid, 200 μM kainic acid and NMDA 100 μM final concentration). Cultures were incubated at 37° C. in the CO2 incubator for 5 minutes for glutamic acid, 45 minutes for kainic acid and 10 minutes for NMDA exposure, after which time the media was replaced with 100 μl of 50% Neurobasal/2% N2 supplement (Invitrogen) and 50% balanced salt solution (BSS; see below). Cultures were incubated for a further 24 hours at 37° C. in the CO2 incubator. The untreated controls with or without glutamic acid or kainic acid treatment received the same wash steps and media additions.
Following this step, cultures were treated as described above. Untreated controls with or without glutamic acid exposure received the same wash steps and media additions. In addition, a post-glutamic acid exposure CPP treatment (5 μM) experiment was performed for the R9 peptide and the JNKI-1D-TAT control peptide.
For pre-glutamic acid exposure experiments, neurons were exposed to peptide(s) for a 10 minute period, immediately before or 1, 2, 3, 4 or 5 hours prior to glutamic acid exposure. […] At the relevant peptide pre-treatment time, media was removed and replaced with 100 μl of Neurobasal/2%. […] Following 5-minute glutamic acid exposure, neuronal culture wells were treated as described above. For all experiments untreated controls with or without glutamic acid treatment underwent the same incubation steps and media additions.
Heparin (for injection) was obtained from Pfizer (1000 IU/ml). Two different heparin experiments were performed: 1. Peptides were incubated with heparin (20 IU/ml) in Neurobasal/B27 for 5 minutes at room temperature, before addition to culture wells (50 μl) for 15 minutes at 37° C. in the CO2 incubator. Following the incubation period, media in wells was removed and replaced with 100 μl of Neurobasal/2% B27 containing glutamic acid (100 μM), and subsequently treated as described above; 2. Media in wells was replaced with Neurobasal/2% B27 containing heparin (50 μl; 40 IU/ml) and incubated for 5 minutes at 37° C. in the CO2 incubator. After the incubation period, peptides or glutamate receptor blockers (MK801/CNQX) in Neurobasal/2% B27 (50 μl) were added to the culture wells and cultures incubated for a further 10 minutes at 37° C. in the CO2 incubator. Following the incubation period, media in wells was removed and replaced with 100 μl of Neurobasal/2% B27 containing glutamic acid (100 μM), and subsequently treated as described above. For all experiments, non-heparin treated peptide controls with glutamic acid treatment underwent the same incubation steps and media additions.
Twenty-four hours after insult, neuronal cultures were examined by light microscopy for qualitative assessment of neuronal cell viability.

[3] = tested on: intracellular calcium influx in neuronal cultures; assay: Intracellular calcium influx (Fura-2 AM) after glutamic acid; type: cell-based, rat; details: peptide 5 μM for 10 min, removed before 100 μM glutamic acid (FIG. 44)
Description: Fura-2 AM was used for intracellular calcium assessment. Representative fluorescent Fura-2 AM tracers; fluorescence intensity (FI) of neuronal cultures 30 sec before and following addition (arrow) of glutamic acid (100 μM final concentration). Peptides or glutamate receptor blockers were added to neuronal cultures for 10 min and removed (time 0) before glutamic acid. Values are mean±SE; n=3. Peptide concentration was 5 μM.
Briefly, cortical tissue from E18-E19 Sprague-Dawley rats was dissociated in Dulbecco's modified Eagle medium (DMEM; Invitrogen, Australia) supplemented with 1.3 mM L-cysteine, 0.9 mM NaHCOa, 10 units/ml papain (Sigma, USA) and 50 units/ml DNase (Sigma) and washed in cold DMEM/10% horse serum. Neurons were resuspended in Neurobasal (Invitrogen) containing 2% B27 supplement (B27; Invitrogen). Before seeding, 96-well sized glass wells (6 mm diameter, ProTech, Australia) or 96-well plastic plates (ProSciTech, Australia) were coated with poly-D-lysine overnight (50 ml/well: 50 mg/mL; 70-150 K, Sigma). Excess poly-D-lysine solution was then removed and replaced with Neurobasal (containing 2% B27; 4% fetal bovine serum; 1% horse serum; 62.5 mM glutamate; 25 mM 2-mercaptoethanol; and 30 mg/mL streptomycin and 30 mg/mL penicillin). Neurons were plated to obtain ≈10,000 viable neurons for each well on day in vitro 11-12. Neuronal cultures were maintained in a CO2 incubator (5% CO2, 95% air balance, 98% humidity) at 37° C. On day in vitro 4 one third of the culture medium was removed and replaced with fresh Neurobasal/2% B27 containing the mitotic inhibitor, cytosine arabinofuraNOside (1 mM final concentration; Sigma). On day in vitro 8 one half of the culture medium was replaced with Neurobasal/2% B27. Cultures were used on day in vitro 11 or 12 after which time they routinely consist of >97% neurons and 1-3% astrocytes (Meloni et al. 2001).

[4] = tested on: primary cortical neuronal cultures; assay: In vitro ischemia / oxygen-glucose deprivation (OGD) model, neurons; type: cell-based, rat; details: for neuroprotection when added for 15 minutes after OGD: FIGS. 31, 20, 22, 1 μM and 5 μM in FIG. 31
Description: Establishment of cortical cultures was as previously described (Meloni et al. 2001). Briefly, cortical tissue from E18-E19 Sprague-Dawley rats was dissociated in Dulbecco's modified Eagle medium (DMEM; Invitrogen, Australia) supplemented with 1.3 mM L-cysteine, 0.9 mM NaHCOa, 10 units/ml papain (Sigma, USA) and 50 units/ml DNase (Sigma) and washed in cold DMEM/10% horse serum. Neurons were resuspended in Neurobasal (Invitrogen) containing 2% B27 supplement (B27; Invitrogen). Before seeding, 96-well sized glass wells (6 mm diameter, ProTech, Australia) or 96-well plastic plates (ProSciTech, Australia) were coated with poly-D-lysine overnight (50 ml/well: 50 mg/mL; 70-150 K, Sigma). Excess poly-D-lysine solution was then removed and replaced with Neurobasal (containing 2% B27; 4% fetal bovine serum; 1% horse serum; 62.5 mM glutamate; 25 mM 2-mercaptoethanol; and 30 mg/mL streptomycin and 30 mg/mL penicillin). Neurons were plated to obtain ≈10,000 viable neurons for each well on day in vitro 11-12. Neuronal cultures were maintained in a CO2 incubator (5% CO2, 95% air balance, 98% humidity) at 37° C. On day in vitro 4 one third of the culture medium was removed and replaced with fresh Neurobasal/2% B27 containing the mitotic inhibitor, cytosine arabinofuraNOside (1 mM final concentration; Sigma). On day in vitro 8 one half of the culture medium was replaced with Neurobasal/2% B27. Cultures were used on day in vitro 11 or 12 after which time they routinely consist of >97% neurons and 1-3% astrocytes (Meloni et al. 2001).
The in vitro ischemia model used for primary cortical neuronal cultures was performed as previously described (Meloni et at 2011) Briefly, culture media was removed from wells (glass 96-well plate format) and washed with 315 μl of glucose free balanced salt solution (BSS; mM: 116 NaCl, 5.4 KCl, 1.8 CaCl2, 0.8 MgSO4, 1 NaH2PO4; pH 6.9) before the addition of 60 μl BSS containing cell penetrating or control peptides (see Table 1). A non-peptide positive control consisting of the glutamate receptor blockers (5 μM MK801/5 μM 6-cyano-7-nitroquinoxaline: MK801/CNQX) was also included. In vitro ischemia was initiated by placing wells in an anaerobic incubator (Don Whitely Scientific, England; atmosphere of 5% CO2, 10% H2 and 85% argon, 98% humidity) at 37° C. for 55 minutes. Upon removal from the anaerobic incubator, 60 μl of Neurobasal/2% N2 supplement was added to the wells and cultures incubated for a further 24 hours at 37° C. in the CO2 incubator. Control cultures received the same BSS wash procedures and media additions as ischemic treated cultures before incubation at 37° C. in the CO2 incubator.
Control cultures underwent the same BSS wash procedures and media additions as OGD treated cultures.
Twenty-four hours after insult, neuronal cultures were examined by light microscopy for qualitative assessment of neuronal cell viability. Neuronal viability was quantitatively measured by 3-(4,5,dimethyliazol-2-yl)-5-(3-carboxymethoxy-phenyl)-2-(4-sulfophenyl)-2H-tetrazolium salt (MTS) assay (Promega, Australia). The MTS assay measures the cellular conversion of the tetrazolium salt to a water-soluble brown formazan salt, which is detected spectrophotometrically at 490 nm. MTS absorbance data were converted to reflect proportional cell viability relative to both the untreated and treated controls, with the untreated control taken as 100% viability, and presented as mean±SEM. […] Viability data was analysed by ANOVA, followed by post-hoc Fischer's PLSD test, with P<0.05 values considered statistically significant. Four- to six wells were used in all assays.

[5] = tested on: brain endothelial cells (bEND3 cells); assay: In vitro ischemia/OGD model, bEND3 cells; type: cell-based; details: peptide during/after ischemia (FIG. 3c) or 15 min before OGD (FIGS. 23, 24)
Description: The in vitro ischemia model was also used for bEND3 cells, SH-SY5Y cells, and astrocytes. For bEND3 cells anaerobic incubation was extended to 2-3 hours and upon removal from the anaerobic incubator, 60 μl of DMEM/2% FCS was added to wells. […] Upon removal from the anaerobic incubator, 60 μl of DMEM/2% FCS was added to wells.
Twenty-four hours after insult, neuronal cultures were examined by light microscopy for qualitative assessment of neuronal cell viability. Neuronal viability was quantitatively measured by 3-(4,5,dimethyliazol-2-yl)-5-(3-carboxymethoxy-phenyl)-2-(4-sulfophenyl)-2H-tetrazolium salt (MTS) assay (Promega, Australia). The MTS assay measures the cellular conversion of the tetrazolium salt to a water-soluble brown formazan salt, which is detected spectrophotometrically at 490 nm. MTS absorbance data were converted to reflect proportional cell viability relative to both the untreated and treated controls, with the untreated control taken as 100% viability, and presented as mean±SEM. For studies using astrocytes, bEND3, and SH-Y5Y cells, raw MTS data was used to generate graphs. Viability data was analysed by ANOVA, followed by post-hoc Fischer's PLSD test, with P<0.05 values considered statistically significant. Four- to six wells were used in all assays.

VSRRRRRRGGRRRR [LMWP]
astrocyte cell death following peptide exposure (primary rat astrocytes): did not cause significant astrocyte cell death

PRRRRSSSRPVRRRRRPRVSRRRRRRGGRRRR [Ptm5]
astrocyte cell death following peptide exposure (primary rat astrocytes): did not cause significant astrocyte cell death

H-rrrrrrrrr-NH2 [D-R9]
reduction of infarct volume (brain damage) ([1]; 1 μmol/kg IV 30 min post-MCAO, infarct volume 24 h post-MCAO (FIGS. 5, 27)): approximately 20%
effect of heparin on neuroprotective action [2]: blocks neuroprotective actions
calcium influx after glutamic acid [3]: to varying degrees reduced calcium influx

N=C(N)NCCC[C@H](NC(=O)[C@H](CCCNC(=N)N)NC(=O)[C@H](CCCNC(=N)N)NC(=O)[C@H](CCCNC(=N)N)NC(=O)[C@H](CCCNC(=N)N)NC(=O)[C@H](CCCNC(=N)N)NC(=O)[C@H](CCCNC(=N)N)NC(=O)[C@H](CCCNC(=N)N)NC(=O)[C@H](CCCNC(=N)N)NC(=O)[C@H](CCCNC(=N)N)NC(=O)[C@H](CCCNC(=N)N)NC(=O)[C@@H](N)CCCNC(=N)N)C(=O)O [Peptide R12]
neuroprotection, peptide for 10 minutes, 1 to 3 hours prior to OGD ([4]; FIG. 32): effective
neuroprotection when added for 15 minutes after OGD [4]: Neuroprotection is displayed
neuroprotection when added post-in vitro ischemia/OGD ([4]; added after anaerobic incubation until experiment end (FIGS. 3b, 16, 17)): displayed neuroprotective effects; also recorded: effective
neuroprotective activity in vivo ([1]; 1 μmol/kg intravenously 30 min post-MCAO): possessed neuroprotective activity in vivo
neuroprotection when added immediately after glutamic acid exposure ([2]; 0 min post-insult (FIG. 1d)): highly effective
neuroprotection, milder insult ([2]; FIG. 1i, comparison at 0.5 μM and 1 μM): more effective than R9
neuroprotection, peptide present during the 5 minute glutamic acid insult only ([2]; FIG. 28): effective
neuroprotection, 10 minute pre-exposure removed immediately prior to insult ([2]; FIG. 29, FIG. 14): effective
neuroprotection, peptide for 10 minutes, 1 to 4 hours prior to glutamic acid insult ([2]; FIG. 30): effective
effect of heparin on neuroprotective action [2]: blocks neuroprotective actions
pIC50 ([2]; read-out: IC50: Glutamic acid model, Table 4, polyarginine peptides, from dose response graph FIG. 1e): 6.36
calcium influx after glutamic acid [3]: to varying degrees reduced calcium influx

PRRRRRSSSRPIRRRRRPRASRRRRRGGRRRR [Ptm1]
astrocyte cell death following peptide exposure (primary rat astrocytes): did not cause significant astrocyte cell death

PRRRRASRRIRRRRRPRVSRRRRRGGRRRR [Ptm4]
neuroprotection when added for 15 minutes after OGD [4]: neuroprotective
neuroprotection in the OGD model (overall statement) ([4]; discussion summary): neuroprotective
neuroprotection (neuronal viability) ([2]; peptide 15 min prior to and during glutamic acid exposure, viability 24 h, MTS): neuroprotective
protection of bEND3 cells (cell death / viability after in vitro ischemia/OGD) [5]: significantly increased cell viability
protection of bEND3 cells (cell death / viability after in vitro ischemia/OGD) ([5]; listed as ptm4): protective

Source: US20160250285A1, “NEUROPROTECTIVE PEPTIDES” (priority 2013, published 2016)
